The record followed here is ChEMBL document CHEMBL5055649, “Synthesis and biological evaluation of 3,5-substituted pyrazoles as possible antibacterial agents” (Bioorg Med Chem, 2021).

Values after ≈ are worked out from the molar mass of the structure shown. Active and inactive are the calls of the source. No cut-off for these calls is given here. Some results are limits rather than exact numbers.

Series [1] deals with Escherichia coli. As to the kind of experiment: Antibacterial activity against Escherichia coli MG1655 assessed as bacterial growth inhibition measured after 20 hrs by CLSI protocol based broth microdilution method. Type of series: functional.
For series [2], the system named is Staphylococcus aureus. Kind of series: Antibacterial activity against Staphylococcus aureus ATCC 25923 assessed as bacterial growth inhibition measured after 20 hrs by CLSI protocol based broth microdilution method. It counts as functional. On the technique in general: In broth dilution the organism is exposed to a series of concentrations in liquid medium.
Series [3] relates to Escherichia coli. As to the kind of experiment: Antibacterial activity against Escherichia coli assessed as zone of inhibition by plate agar diffusion method. Type of series: functional. (A growth-free zone around the sample is the usual read-out of agar diffusion tests.)
Series [4] concerns Bacillus subtilis. As to the kind of experiment: Antibacterial activity against Bacillus subtilis 168 assessed as diameter of zone of inhibition by agar plate diffusion method. Type of series: functional.
Series [5] relates to Bacillus subtilis. As to the kind of experiment: Induction of morphological changes in Bacillus subtilis 168 assessed as cell lysis at 2.5 to 3.5 times MIC incubated for 1 hr by phase-contrast microscopic analysis. It counts as functional, organism-based.
Series [6] has as its system Bacillus subtilis. Kind of series: Induction of morphological changes Bacillus subtilis 168 assessed as morphological changes by measuring cell lysis with cell debris and ghost cells at 3 times MIC incubated for 3 hr by phase-contrast microscopic analysis. Type of series: functional, organism-based.
Series [7] has as its system Staphylococcus aureus. As to the kind of experiment: Bacteriostatic activity against Staphylococcus aureus ATCC 25923 assessed as reduction in bacterial growth measured after 20 hrs by CLSI protocol based broth microdilution method. It counts as functional, organism-based.
Series [8] has as its system Bacillus subtilis. As to the kind of experiment: Induction of morphological changes in Bacillus subtilis 168 assessed as immediate cell lysis at >8 ug/ml incubated for 120 mins by phase-contrast microscopic analysis. Type of series: functional, organism-based. The following applies: dose > 8.0 µg/ml.
The subject of series [9] is Bacillus subtilis. As to the kind of experiment: Induction of morphological changes in Bacillus subtilis 168 assessed as cell lysis at 2.5 to 3.5 times MIC incubated for 2 hrs by phase-contrast microscopic analysis. It counts as functional, organism-based.
In series [10] the test system is Bacillus subtilis. Kind of series: Induction of morphological changes in Bacillus subtilis 168 assessed as bulbous distortion at 2.5 to 2.75 times MIC incubated for 3 hr by phase-contrast microscopic analysis. Type of series: functional, organism-based.
A further series deals with 3T3-L1. Kind of series: Cytotoxicity against mouse 3T3-L1 cells assessed as reduction in cell viability at 50 ug/ml measured after 24 to 72 hrs y MTT assay. It counts as cell-based. As to conditions: time 24-72 hrs, dose 50 µg/ml. In general terms: Tetrazolium assays rely on reduction of a dye to a coloured formazan, in cell work by metabolically active cells.
In series [11] the test system is Bacillus subtilis. Kind of series: Bacteriostatic activity against Bacillus subtilis 168 assessed as reduction in bacterial growth measured after 20 hrs by CLSI protocol based broth microdilution method. Type of series: functional, organism-based.
For series [12], the system named is Bacillus subtilis. Kind of series: Antibacterial activity against Bacillus subtilis 168 assessed as bacterial growth inhibition measured after 20 hrs by CLSI protocol based broth microdilution method. It counts as functional.
A short description of series [13]: Cytotoxicity against mouse 3T3-L1 cells assessed as cell viability at 25 ug/ml measured up to 72 hrs y MTT assay relative to control. It counts as cell-based. As to conditions: at 25 µg/mL, read-out: Activity.

With `COc1ccc(-c2cc(-c3ccc(-c4ccccc4)cc3)n[nH]2)cc1OC`, the MIC95 in the series on Escherichia coli [1] and with Staphylococcus aureus [2] was over 128 µg/mL in each case. The entries for the “diameter of the inhibition zone (DIZ)” value in the series on Escherichia coli [3] and in the series on Bacillus subtilis [4] were 20 mm and 13 mm, respectively.
With `COc1ccc(-c2cc(-c3ccc(-c4ccc(Cl)cc4)cc3)n[nH]2)cc1`, the MIC95 in the series with Escherichia coli [1] and in the series with Staphylococcus aureus [2] was over 128 µg/mL in each case.
`COc1ccc(-c2cc(-c3ccc(-c4ccc(Cl)cc4)cc3)n[nH]2)cc1OC`: the MIC95 in the series with Escherichia coli [1] and in the series on Staphylococcus aureus [2] was over 128 µg/mL in each case.
Take `COc1ccc(-c2cc(-c3ccc(-c4ccc(C(C)(C)C)cc4)cc3)n[nH]2)cc1OC`: the MIC95 in the series on Escherichia coli [1] and in the series on Staphylococcus aureus [2] was over 128 µg/mL throughout.
One may read the MIC as the least concentration at which growth counts as inhibited. As to `COc1cc(-c2cc(-c3ccc(-c4ccccc4)cc3)n[nH]2)ccc1O`, the outcome in the series on Bacillus subtilis [5], in the series on Bacillus subtilis [6], with Staphylococcus aureus [7], with Bacillus subtilis [9], in the series on Bacillus subtilis [10] and in the series on Bacillus subtilis [11] was Active. Besides, the MIC95 with Escherichia coli [1] is over 128 µg/mL; in the series with Staphylococcus aureus [2], 8 µg/mL (≈ 23.4 µM). Moreover, the result with Bacillus subtilis [8] was inactive. Besides, in the series with 3T3-L1, the Activity result is “Non-Toxic”. Also, in the series with Bacillus subtilis [12], the MIC came out at 8 µg/mL (≈ 23.4 µM).
`COc1ccc(-c2cc(-c3ccc(-c4ccc(C(C)(C)C)cc4)cc3)n[nH]2)cc1`: the MIC95 in the series with Escherichia coli [1] and with Staphylococcus aureus [2] was over 128 µg/mL throughout.
With `CC(C)(C)c1ccc(-c2ccc(-c3cc(-c4ccc(OCc5ccccc5)cc4)[nH]n3)cc2)cc1`, the MIC95 in the series with Escherichia coli [1] and with Staphylococcus aureus [2] was over 128 µg/mL each time.
In the case of `Clc1ccc(-c2ccc(-c3cc(-c4ccc(OCc5ccccc5)cc4)[nH]n3)cc2)cc1`, the MIC95 in the series with Escherichia coli [1] and in the series with Staphylococcus aureus [2] was over 128 µg/mL each time.
Turning to `COc1cc(-c2cc(-c3ccc(-c4ccc(Cl)cc4)cc3)n[nH]2)ccc1OCc1ccccc1`, the MIC95 with Escherichia coli [1] and in the series with Staphylococcus aureus [2] was over 128 µg/mL each time.
Regarding `COc1ccc(OC)c(-c2cc(-c3ccc(-c4ccccc4)cc3)n[nH]2)c1`, the MIC95 in the series on Escherichia coli [1] and with Staphylococcus aureus [2] was over 128 µg/mL in each case.
Consider `Oc1cccc(-c2cc(-c3ccc(-c4ccccc4)cc3)n[nH]2)c1`, for which the MIC95 in the series on Escherichia coli [1] and in the series with Staphylococcus aureus [2] was over 128 µg/mL throughout.
Consider `COc1ccc(-c2cc(-c3ccc(-c4ccccc4)cc3)n[nH]2)cc1`, for which the MIC95 with Escherichia coli [1] and with Staphylococcus aureus [2] was over 128 µg/mL in each case.
As to `Clc1ccc(-c2ccc(-c3cc(-c4cccc(OCc5ccccc5)c4)[nH]n3)cc2)cc1`, the MIC95 with Escherichia coli [1] and in the series on Staphylococcus aureus [2] was over 128 µg/mL each time.
As to `COc1ccc(-c2cc(-c3ccc(-c4ccc(Cl)cc4)cc3)n[nH]2)c(OC)c1`, the MIC95 in the series on Escherichia coli [1] and in the series on Staphylococcus aureus [2] was over 128 µg/mL in each case.
Consider `COc1ccc(OC)c(-c2cc(-c3ccc(-c4ccc(Cl)cc4)cc3)n[nH]2)c1`, for which the MIC95 with Escherichia coli [1] and in the series with Staphylococcus aureus [2] was over 128 µg/mL throughout.
Take `COc1ccc(OC)c(-c2cc(-c3ccc(-c4ccc(C(C)(C)C)cc4)cc3)n[nH]2)c1`: the MIC95 in the series on Escherichia coli [1] and in the series with Staphylococcus aureus [2] was over 128 µg/mL in each case.
For `COc1cc(-c2cc(-c3ccc(C(C)(C)C)cc3)n[nH]2)ccc1O`, the outcome with Staphylococcus aureus [7] and with Bacillus subtilis [11] was Active. The figures for the MIC95 in the series with Escherichia coli [1] and in the series with Staphylococcus aureus [2] were over 128 µg/mL and 32 µg/mL (≈ 99.3 µM), respectively. Besides, in [13], the viability at 72 h, 25 ug/ml turned out to be 85%. Besides, the MIC in the series with Bacillus subtilis [12] amounted to 16 µg/mL (≈ 49.6 µM).
